Patent publication US20030022871A1, “Method for modulating tumor growth and metastasis of tumor cells” (priority 2002, published 2003)

Assays:
E47 = molecular target: T1, E47 (Homo sapiens, UniProt P15923); experiment: Native polyacrylamide gel binding of tritiated tetracycline to protein; details: 10-30-fold molar excess of tritiated tetracycline, PBS, room temperature 30 minutes, 8% native gel autoradiogram
T1 sequence (P15923 1-651 isoform P15923-2): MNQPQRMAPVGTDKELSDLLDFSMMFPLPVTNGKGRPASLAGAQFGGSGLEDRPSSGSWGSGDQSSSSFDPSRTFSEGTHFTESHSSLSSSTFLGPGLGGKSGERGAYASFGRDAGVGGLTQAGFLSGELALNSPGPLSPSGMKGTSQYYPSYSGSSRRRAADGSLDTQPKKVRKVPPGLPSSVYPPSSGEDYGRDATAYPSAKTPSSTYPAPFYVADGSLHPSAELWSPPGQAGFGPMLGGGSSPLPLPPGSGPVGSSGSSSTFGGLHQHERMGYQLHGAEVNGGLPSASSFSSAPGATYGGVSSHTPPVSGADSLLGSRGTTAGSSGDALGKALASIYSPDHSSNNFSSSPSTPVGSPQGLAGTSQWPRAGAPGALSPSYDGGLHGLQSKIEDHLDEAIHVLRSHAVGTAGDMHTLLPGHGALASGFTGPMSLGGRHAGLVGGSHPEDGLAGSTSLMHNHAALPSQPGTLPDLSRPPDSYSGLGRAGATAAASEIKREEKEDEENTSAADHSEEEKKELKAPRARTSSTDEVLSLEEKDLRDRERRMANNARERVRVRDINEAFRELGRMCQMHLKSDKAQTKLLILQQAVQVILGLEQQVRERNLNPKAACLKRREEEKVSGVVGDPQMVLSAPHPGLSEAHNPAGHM
Protocol: (§1) Radiolabeled tetracycline (tritiated) was mixed with purified Id1 protein and other proteins separately to permit contact between the labeled tetracycline and the proteins. […] The complexes could then be visualized in an autoradiogram of the gel, e.g., exposure of the gel to x-ray film.
(§2) In this experiment, a 10-30-fold molar excess of tritiated tetracycline was added to the indicated proteins separately in 10 Tl reaction tube containing one of the proteins and phosphate buffered saline at physiological pH. Proteins used in this experiment were:
(§3) The mixtures were incubated at room temperature for 30 minutes. Bromophenol blue was added to each sample at 0.01% (v/v). The samples were then electrophoresed on an 8% native polyacrylamide gel.
(§4) After electrophoresing the samples, the gel was dried and exposed to autoradiographic film for 12 hours to make an autoradiogram of the gel.

MyoD = molecular target: T2, MyoD (Homo sapiens, UniProt P15172); experiment: as above; details: 10-30-fold molar excess of tritiated tetracycline, PBS, room temperature 30 minutes, 8% native gel autoradiogram
T2 sequence (P15172 1-320): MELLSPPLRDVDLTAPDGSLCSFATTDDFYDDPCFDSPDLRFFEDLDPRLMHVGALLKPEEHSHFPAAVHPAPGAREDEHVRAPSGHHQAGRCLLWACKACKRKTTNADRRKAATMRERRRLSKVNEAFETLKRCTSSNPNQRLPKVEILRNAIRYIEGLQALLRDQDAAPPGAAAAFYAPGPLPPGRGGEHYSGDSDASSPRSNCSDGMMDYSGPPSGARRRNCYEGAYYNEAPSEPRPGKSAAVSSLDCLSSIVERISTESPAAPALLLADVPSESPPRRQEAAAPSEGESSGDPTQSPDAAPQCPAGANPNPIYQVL
Protocol: as §1, §2, §3, §4

[1] = system: Id1 new, the normal protein (native Id1); experiment: as above; details: 10-30-fold molar excess of tritiated tetracycline, PBS, room temperature 30 minutes, 8% native gel autoradiogram
Protocol: as §1, §2, §3, §4

[2] = system: Id old, an old preparation of Id in which the protein's conformation is perturbed; experiment: as above; details: 10-30-fold molar excess of tritiated tetracycline, PBS, room temperature 30 minutes, 8% native gel autoradiogram
Protocol: as §1, §2, §3, §4

[3] = system: Hsp90 (heat shock protein 90); experiment: as above; details: 10-30-fold molar excess of tritiated tetracycline, PBS, room temperature 30 minutes, 8% native gel autoradiogram
Protocol: as §1, §2, §3, §4

E12 [4] = molecular target: T3, E12 (Homo sapiens, UniProt P15923); experiment: as above; details: 10-30-fold molar excess of tritiated tetracycline, PBS, room temperature 30 minutes, 8% native gel autoradiogram
T3 construct: expressed in transfected cells
T3 sequence (P15923 1-654): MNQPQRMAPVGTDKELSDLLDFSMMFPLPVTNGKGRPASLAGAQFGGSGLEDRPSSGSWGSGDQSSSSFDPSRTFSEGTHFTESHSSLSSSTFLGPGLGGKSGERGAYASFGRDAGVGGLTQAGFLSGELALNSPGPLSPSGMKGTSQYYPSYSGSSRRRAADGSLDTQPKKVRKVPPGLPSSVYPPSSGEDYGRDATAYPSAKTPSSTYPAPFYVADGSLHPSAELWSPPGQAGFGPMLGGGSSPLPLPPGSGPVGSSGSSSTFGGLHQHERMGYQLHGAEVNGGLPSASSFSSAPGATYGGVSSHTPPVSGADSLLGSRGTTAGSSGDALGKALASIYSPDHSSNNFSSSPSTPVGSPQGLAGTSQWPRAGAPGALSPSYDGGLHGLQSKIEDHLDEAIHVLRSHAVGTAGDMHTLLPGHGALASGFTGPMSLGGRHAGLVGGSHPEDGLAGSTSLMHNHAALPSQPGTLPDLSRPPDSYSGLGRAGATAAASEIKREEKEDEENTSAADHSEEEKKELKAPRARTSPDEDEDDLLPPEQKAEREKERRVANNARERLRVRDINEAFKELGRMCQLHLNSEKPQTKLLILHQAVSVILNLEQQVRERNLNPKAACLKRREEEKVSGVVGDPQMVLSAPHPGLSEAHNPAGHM
Protocol: as §1, §2, §3, §4

E12 [5] = molecular target: T3, E12; experiment: 4R-TK-CAT reporter assay with E12 plasmid alone in mammalian culture cells; assay type: cell-based; details: E12 plasmid without Id1, tetracycline 100
Source text: (§5) Plasmids capable of expressing proteins when introduced into mammalian culture cells were used to test the activity of those proteins. In the assay depicted below, a plasmid that contains sequences to which the E12 protein binds upstream of a reporter gene (4R-TK-CAT) ix mixed with an E12 encoding plasmid and an Id plasmid to see if Id can inhibit the ability of E12 protein to bind and activate the reporter gene, in a similar to that described in Pesce, 1993 #163. If E12 binds to its sequence in the 4R-TK-CAT vector, it causes expression of the chloramphenical acetyltransferase (CAT) gene. The protein product of the CAT gene has an enzymatic activity that can be quantified. Uptake of the various plasmids was normalized to the expression of luciferase activity from a separate plasmid added in equal amounts to all cultures.

Id1 [6] = molecular target: T4, Id1 (Homo sapiens, UniProt P41134); experiment: Gel shift: Id1 antagonism of E47 binding to radiolabeled DNA; assay type: biochemical
T4 sequence (P41134 1-155): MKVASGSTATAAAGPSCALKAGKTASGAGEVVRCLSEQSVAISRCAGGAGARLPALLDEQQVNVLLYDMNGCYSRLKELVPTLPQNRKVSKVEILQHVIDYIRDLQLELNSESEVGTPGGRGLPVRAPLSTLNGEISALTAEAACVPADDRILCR
Protocol: Purified Id1 and its target protein E12 are mixed to together in vitro, and the ability of Id1 to antagonize DNA binding capacity of E12 is measured. To measure E12 DNA binding activity, the mixtures were incubated with radiolabeled DNA sequences to which E12 binds and the protein/DNA complexes resolved on a native polyacrylamide gel as described [Benezra, 1994 #463].
In this experiment, 50 nanograms of E47 protein (described in Example I) was present in reaction mixtures of 100, 200, and 400 nanograms of Id1, designated +, ++, and +++ respectively in FIG. 2. Tetracycline was added to the reactions as indicated (+) to about 200 Tg/ml final concentration. Radiolabeled DNA to which E47 binds was then introduced in each mixture. […] Each of the mixtures was permitted to incubate at room temperature for about 30 minutes. Then, the mixtures were electrophoresed in an 8% native polyacrylamide gel as described in Benezra, 1994.
After electrophoresing the samples, the gel was dried and exposed to autoradiographic film to make an autoradiograph of the gel.

Id1 [7] = molecular target: T4, Id1; experiment: 4R-TK-CAT reporter assay with E12 and Id1 plasmids in mammalian culture cells; assay type: cell-based
Source text: as §5

CN(C)[C@@H]1C(O)=C(C(N)=O)C(=O)[C@@]2(O)C(O)=C3C(=O)c4c(O)cccc4[C@@](C)(O)[C@H]3C[C@@H]12 [tetracycline, [4S-(4I,5aI,5aI,6J,12aI)]-4-(Dimethylamino)-1,4,4a,5,5a,6-11,12a-octahydro-3,6, 10,12,12a-peiztaiydroxy-6-methyl-1,11-dioxo-2-naphthacenecarboxamide]
Binding of radiolabeled tetracycline to E47 (lane 6) (E47): did not bind
Binding of radiolabeled tetracycline to MyoD (lane 5) (MyoD): did not bind
Binding of radiolabeled tetracycline to native Id1 (lane 4) [1]: bound to native Id1
Binding of radiolabeled tetracycline to old Id having a perturbed conformation (lane 3) [2]: no radiolabeled tetracycline was detected
Binding of radiolabeled tetracycline to Hsp90 (lane 1) [3]: did not bind
Binding of radiolabeled tetracycline to E12 (lane 2) (E12 [4]): did not bind
Effect of tetracycline on E12 activation of 4R-TK-CAT (E12 [5]): not effected
E47/DNA complex band intensity with tetracycline (lane 4) versus without (lane 3) (Id1 [6]; 50 nanograms E47, 100 nanograms Id1, tetracycline about 200 Tg/ml, same said for lanes 6 vs 5 and 8 vs 7 (200, 400 nanograms Id1)): much more intense
Effect on Id activity, i.e. dimerizing with a protein member of the HLH super family, in vitro (Id1 [6]; tetracycline about 200 Tg/ml, 50 nanograms E47, 100-400 nanograms Id1): clearly inhibits Id activity
Effect of tetracycline on Id1 inhibition of E12 (4R-TK-CAT reporter), Id1 high (Id1 [7]; Id1 10:1 molar excess over E12, tetracycline 100): no longer effective
E12 binding activity (4R-TK-CAT reporter) in presence of tetracycline, Id1 (low) (Id1 [7]; Id1 plasmid at 3:1 molar excess of E12, tetracycline 100): partially restored
